Experimental data: patent US20220402862A1 (Intellia Therapeutics, Inc., priority 2019, published 2022)
Values joined by “and” are separate entries in the source; they are usually repeats but may differ in a detail not shown here. Identical values can stand only once.

Experiments:
[1] = Dynamic light scattering of LNPs: Z-average diameter, number average diameter, PDI; format: physicochemical
Procedure, shortened: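 Values reported are the Z-average (intensity-weighted mean size), the number-average diameter and the PDI (spread of sizes, 0 = fully uniform). All three came from dynamic light scattering of LNP preparations after dilution in PBS.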

[2] = system: Transthyretin (TTR); test: Serum TTR measurement in rats after LNP dosing; format: in vivo, Sprague Dawley female rats; conditions: Experiment 109; for Serum TTR % TSS: rat serum TTR relative to TSS control; for Serum TTR: rat serum, G534 sgRNA + Cas9 mRNA LNP
[3] = RNA encapsulation efficiency of LNPs (Ribogreen fluorescence assay); format: physicochemical; conditions: for % E (encapsulation efficiency): LNP with G534 sgRNA and Cas9 mRNA, sg:mRNA 1:2, experiment 109; for % E / Encapsulation (%): LNP
Procedure, shortened: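 Encapsulation efficiency is (Total RNA − Free RNA)/Total RNA. Free RNA was quantified by RiboGreen fluorescence (488/525 nm, ~10 min, RT, dark) in plain TE buffer; total RNA was quantified after LNP lysis with 0.2% Triton X-100, both against RNA standard curves.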

[4] = pKa measurement of unformulated amine lipid (fluorescence, method of Jayaraman et al.); format: physicochemical; conditions: 100 μM in 0.1 M phosphate buffer, pH 2.0-12.0
Method: The pKa of each amine lipid was determined according to the method in Jayaraman, et al. (Angewandte Chemie, 2012) with the following adaptations. […] Lipid was diluted to 100 μM in 0.1 M phosphate buffer (Boston Bioproducts) where the pH ranged from 2.0-12.0. Fluorescence intensity was measured using excitation and emission wavelengths of 321 nm and 448 nm.

[5] = system: Transthyretin (TTR); test: Serum TTR ELISA in mice after LNP dosing; format: in vivo, CD-1 female mice
Procedure, shortened: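 Serum mouse TTR was quantified by ELISA at 10,000-fold dilution for 0.1 mg/kg and 10,000/2,500-fold for 0.3 mg/kg. Samples came from female CD-1 mice (6–10 weeks) killed 6 or 7 days after a single intravenous LNP dose, usually 0.1 mg/kg.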

[6] = LNP with G534 sgRNA and Cas9 mRNA, sg:mRNA 1:2, experiment 109
[7] = LNP, sg:mRNA 1:1, N/P 6.0, 50/9/38/3, Table 4, Experiments 101-104
[8] = LNP, sg:mRNA 1:1.3, N/P about 6, 50/9/38/3, Table 2, Experiment 1
[9] = LNP, sg:mRNA 1:2, N/P 6.0, 50/9/38/3, Table 4, Experiment 105
[10] = LNP, sg:mRNA 1:2, N/P about 6, 50/9/38/3, G650, Table 8, Experiment 108
[11] = LNP, sg:mRNA 1:2, N/P about 6, 50/9/38/3, Table 6, Experiments 106-107
[12] = sg:mRNA 1:1, N/P 6.0, 50/9/38/3, Table 4, Experiments 101-104
[13] = sg:mRNA 1:1, N/P about 6, amine lipid/DSPC/cholesterol/PEG-2k-DMG 50/9/38/3, Table 2, Experiments 2-20
[14] = sg:mRNA 1:2, N/P 6.0, 50/9/38/3, Table 4, Experiment 105
[15] = sg:mRNA 1:2, N/P about 6, 50/9/38/3, G650 sgRNA, Table 8, Experiment 108
[16] = mouse, LNP i.v. 0.03 mg/kg, guide G502, Experiment 105
[17] = mouse, LNP i.v. 0.03 mg/kg, guide G502, Experiment 105, relative to TSS control
[18] = mouse, LNP i.v. 0.1 mg/kg, guide G502, Experiment 105
[19] = mouse, LNP i.v. 0.1 mg/kg, guide G502, Experiment 105, relative to TSS control
[20] = LNP, sg:mRNA 1:1, N/P about 6, 50/9/38/3, Table 2, Experiments 2-20
[21] = mouse serum TTR relative to TSS control, guide G282 experiments
[22] = mouse serum, guide G282 experiments, ELISA
[23] = mouse, LNP i.v. 0.1 mg/kg, guide G282, Experiments 101-103
[24] = mouse, LNP i.v. 0.1 mg/kg, guide G282, Experiments 101-103, relative to TSS control
[25] = mouse, LNP i.v. 0.3 mg/kg, guide G282, Experiments 101-103
[26] = mouse, LNP i.v. 0.3 mg/kg, guide G282, Experiments 101-103, relative to TSS control

## CCCCC/C=C\C/C=C\CCCCCCCC(=O)OCC(COC(=O)CCC(OCCCCCCCC)OCCCCCCCC)COC(=O)OCCCN(CC)CC (stereo not shown) [Compound 1, 3-((4,4-bis(octyloxy)butanoyl)oxy)-2-((((3-(diethylamino)propoxy)carbonyl)oxy)methyl)propyl (9Z,12Z)-octadeca-9,12-dienoate, reference compound]
[1]; [6]
  Number mean (nm): 73 nm
  PDI: 0.01
  Z-avg (nm): 88 nm
[1]; [7]
  Number mean (nm): 69.51 nm and 62.86 nm and 64.97 nm and 63.19 nm
  Z-avg (nm): 84.93 nm and 79.83 nm and 82.71 nm and 79.18 nm
[1]; [8]
  Number mean (nm): 63.16 nm
  PDI: 0.022
  Z-avg (nm): 77.85 nm
[1]; [9]
  Number mean (nm): 73.15 nm
  PDI: 0.033
  Z-avg (nm): 88.60 nm
[1]; [10]
  Number mean (nm): 70 nm
  PDI: 0.03
  Z-avg (nm): 86 nm
[1]; [11]
  Number mean (nm): 76 nm and 71 nm
  Z-avg (nm): 91 nm and 88 nm
[2]; G534, i.v. 0.1 mg/kg
  Serum TTR % TSS: 56.6 % TSS
[2]; G534, i.v. 0.3 mg/kg
  Serum TTR % TSS: 7.1 % TSS
[2]; i.v. 0.1 mg/kg
  Serum TTR: 916.9 µg/mL
[2]; i.v. 0.3 mg/kg
  Serum TTR: 114.3 µg/mL
[3]
  % E (encapsulation efficiency): 98%
[3]; [12]
  % E: 98% and 99% and 97%
[3]; [13]
  Encapsulation (%): 96% and 99% and 98% and 97%
[3]; sg:mRNA 1:1.3, N/P about 6, amine lipid/DSPC/cholesterol/PEG-2k-DMG 50/9/38/3, Table 2, Experiment 1
  Encapsulation (%): 97%
[3]; [14]
  % E: 99%
[3]; [15]
  % E: 98%
[3]; sg:mRNA 1:2, N/P about 6, 50/9/38/3, TTR sgRNA (SEQ ID NO: 4), Table 6, Experiments 106-107
  % E: 99%
[4]
  pKa: 6.4
[5]; mouse serum TTR relative to TSS control, guide G502, i.v. 0.1 mg/kg, 0.1 mg/kg
  Serum TTR % TSS: 53.7% and 37.8%
[5]; mouse serum, guide G502, i.v. 0.1 mg/kg, 0.1 mg/kg
  Serum TTR: 593.76 µg/mL and 442 µg/mL
[5]; [16]
  Serum TTR: 931 µg/mL
[5]; [17]
  Serum TTR % TSS: 85%
[5]; mouse, LNP i.v. 0.1 mg/kg, guide G282, Experiments 101-103, relative to TSS control, 0.1 mg/kg
  Serum TTR % TSS: 79% and 54% and 76%
[5]; [18]
  Serum TTR: 294 µg/mL
[5]; [19]
  Serum TTR % TSS: 27%
[5]; mouse, LNP i.v. 0.3 mg/kg, guide G282, Experiments 101-103, relative to TSS control, 0.3 mg/kg
  Serum TTR % TSS: 20% and 13%

## CCCCC/C=C\C/C=C\CCCCCCCC(=O)OCC(COC(=O)CCC(OCCCCCCCC)OCCCCCCCC)COC(=O)NCC1CCCN1CC (stereo not shown) [Compound 40, 3-((4,4-bis(octyloxy)butanoyl)oxy)-2-(((((1-ethylpyrrolidin-2-yl)methyl)carbamoyl)oxy)methyl)propyl (9Z,12Z)-octadeca-9,12-dienoate]
[1]; [7]
  Number mean (nm): 66.92 nm
  PDI: 0.014
  Z-avg (nm): 83.69 nm
[1]; [20]
  Number mean (nm): 56.73 nm
  PDI: 0.056
  Z-avg (nm): 74.12 nm
[3]; [12]
  % E: 95%
[3]; [13]
  Encapsulation (%): 98%
[4]
  pKa: 7.33
[5]; [21]
  Serum TTR % TSS: 44%
[5]; [22]
  Serum TTR: 393 µg/mL
[5]; [23]
  Serum TTR: 443 µg/mL
[5]; [24]
  Serum TTR % TSS: 48%
[5]; [25]
  Serum TTR: 80 µg/mL
[5]; [26]
  Serum TTR % TSS: 9%

## CCCCC/C=C\C/C=C\CCCCCCCC(=O)OCC(COC(=O)CCC(OCCCCCCCC)OCCCCCCCC)COC(=O)OCC1CCCN(C)C1 (stereo not shown) [Compound 53, 3-((4,4-bis(octyloxy)butanoyl)oxy)-2-(((((1-methylpiperidin-3-yl)methoxy)carbonyl)oxy)methyl)propyl (9Z,12Z)-octadeca-9,12-dienoate]
[1]; [7]
  Number mean (nm): 56.05 nm
  PDI: 0.019
  Z-avg (nm): 70.47 nm
[1]; [20]
  Number mean (nm): 60.35 nm
  PDI: 0.040
  Z-avg (nm): 76.24 nm
[3]; [12]
  % E: 99%
[3]; [13]
  Encapsulation (%): 99%
[4]
  pKa: 6.85
[5]; [21]
  Serum TTR % TSS: 47%
[5]; [22]
  Serum TTR: 413 µg/mL
[5]; [23]
  Serum TTR: 619 µg/mL
[5]; [24]
  Serum TTR % TSS: 67%
[5]; [25]
  Serum TTR: 231 µg/mL
[5]; [26]
  Serum TTR % TSS: 25%

## CCCCCCCCCCOC(=O)CCCCCCCC(=O)OCC(COC(=O)CCC(OCCCCCCCC)OCCCCCCCC)COC(=O)OCCCN(CC)CC (stereo not shown) [Compound 59, 1-(3-((4,4-bis(octyloxy)butanoyl)oxy)-2-((((3-(diethylamino)propoxy)carbonyl)oxy)methyl)propyl) 9-decyl nonanedioate]
[1]; [6]
  Number mean (nm): 75 nm
  PDI: 0.04
  Z-avg (nm): 91 nm
[1]; [7]
  Number mean (nm): 72.60 nm and 67.12 nm
  PDI: 0.012 and 0.024
  Z-avg (nm): 87.31 nm and 83.42 nm
[1]; [20]
  Number mean (nm): 84.05 nm and 73.04 nm
  Z-avg (nm): 100.4 nm and 87.86 nm
[1]; [9]
  Number mean (nm): 79.11 nm
  PDI: 0.041
  Z-avg (nm): 96.76 nm
[2]; G534, i.v. 0.1 mg/kg
  Serum TTR % TSS: 69.4 % TSS
[2]; G534, i.v. 0.3 mg/kg
  Serum TTR % TSS: 20.9 % TSS
[2]; i.v. 0.1 mg/kg
  Serum TTR: 1124.0 µg/mL
[2]; i.v. 0.3 mg/kg
  Serum TTR: 337.9 µg/mL
[3]
  % E (encapsulation efficiency): 98%
[3]; [12]
  % E: 98% and 96%
[3]; [13]
  Encapsulation (%): 99% and 97%
[3]; [14]
  % E: 99%
[4]
  pKa: 6.4
[5]; [21]
  Serum TTR % TSS: 40% and 57% and 66%
[5]; [22]
  Serum TTR: 367 µg/mL and 431 µg/mL and 604 µg/mL
[5]; [16]
  Serum TTR: 909 µg/mL
[5]; [17]
  Serum TTR % TSS: 83%
[5]; [23]
  Serum TTR: 300 µg/mL
[5]; [24]
  Serum TTR % TSS: 49%
[5]; [18]
  Serum TTR: 467 µg/mL
[5]; [19]
  Serum TTR % TSS: 42%
[5]; [25]
  Serum TTR: 43 µg/mL
[5]; [26]
  Serum TTR % TSS: 7%

## CCCCCCCCCC(C)OC(=O)CCCCCCCC(=O)OCC(COC(=O)CCC(OCCCCCCCC)OCCCCCCCC)COC(=O)OCCCN(CC)CC (stereo not shown) [Compound 94, 1-(344,4-bis(octyloxy)butanoyl)oxy)-2-((((3-(diethylamino)propoxy)carbonyl)oxy)methyl)propyl) 9-(undecan-2-yl) nonanedioate]
[1]; [6]
  Number mean (nm): 77 nm
  PDI: 0.02
  Z-avg (nm): 95 nm
[1]; [20]
  Number mean (nm): 78.22 nm
  PDI: 0.018
  Z-avg (nm): 96.35 nm
[1]; [9]
  Number mean (nm): 80.04 nm
  PDI: 0.032
  Z-avg (nm): 98.90 nm
[2]; G534, i.v. 0.1 mg/kg
  Serum TTR % TSS: 39.5 % TSS
[2]; G534, i.v. 0.3 mg/kg
  Serum TTR % TSS: 8.2 % TSS
[2]; i.v. 0.1 mg/kg
  Serum TTR: 639.5 µg/mL
[2]; i.v. 0.3 mg/kg
  Serum TTR: 132.9 µg/mL
[3]
  % E (encapsulation efficiency): 97%
[3]; [13]
  Encapsulation (%): 99%
[3]; [14]
  % E: 99%
[4]
  pKa: 6.14
[5]; [21]
  Serum TTR % TSS: 38%
[5]; [22]
  Serum TTR: 286 µg/mL
[5]; [16]
  Serum TTR: 605 µg/mL
[5]; [17]
  Serum TTR % TSS: 55%
[5]; [18]
  Serum TTR: 352 µg/mL
[5]; [19]
  Serum TTR % TSS: 32%

## CCCCC/C=C\C/C=C\CCCCCCCC(=O)OCC(COC(=O)CC12CC3CC(CC(C3)C1)C2)COC(=O)OCCCN(CC)CC (stereo not shown) [Compound 107, 3-(2-((3 r,5 r, 7r)-adamantan-1-yl)acetoxy)-2-((((3-(diethylamino)propoxy)carbonyl)oxy)methyl)propyl (9Z,12Z)-octadeca-9,12-dienoate]
[1]; [10]
  Number mean (nm): 65 nm
  PDI: 0.07
  Z-avg (nm): 84 nm
[3]; [15]
  % E: 94%
[4]
  pKa: 6.43
